This note sets out measurements from US5245034A, “Compound having vessel smooth muscle relaxation activity” (Hidaka; Kiroyoshi, priority 1988, dated 1993).

The structures appear in SMILES notation. Like-named read-outs stand apart in the source and are kept apart here.

Assay [1] has as its system superior mesenteric artery (contracted by potassium chloride). Nature of the assay: Vessel Smooth Muscle Relaxation Action (V.R.). The assay is classed as cell-based, rabbit. To be noted: Oryctolagus cuniculus, read-out: V.R. (ED50). The text has this:
The specimen was suspended by loading a strain in Krebs-Henseleit solution through which an oxygen gas containing 5% carbon dioxide was bubbled. The specimen was contracted by adding potassium chloride to maintain a predetermined strain. Thereafter, a test compound was cumulatively administrated.

A further assay deals with washed platelets. Nature of the assay: Platelet Agglutination Inhibition (P.A.), collagen-induced. The assay is classed as cell-based, human (healthy person). The settings on record: Homo sapiens, read-out: P.A. (IC50). Here is the method: To this suspension was added one sixth volume of ACD solution, and the whole was further centrifuged at 1500×G for 5 minutes to prepare a platelet pellet. The platelet pellet was then suspended in a modified HEPES Tyrode solution to obtain about 3×10^5 /μl in washed platelet suspension.
To 270 μl of the washed platelet suspension was added 3 μl of a solution of a test compound dissolved in an appropriate medium in different concentration, and the mixture was pre-incubated at 37° C. for 2 minutes.
As a control, the above-mentioned procedure was carried out except that the test medium without a test compound was used, and the absorbance before addition of collagen and the maximum absorbance after addition of collagen were measured, and the difference between both absorbances was taken as 100% agglutination.
For test compound, the absorbance before an addition of collagen and the maximum absorbance after an addition of collagen were measured, and a percent of the inhibition was determined, compared with the control.

Assay [2] has as its target Calmodulin-Dependent Phosphodiesterase (Ca^2+ PDE). Nature of the assay: Calmodulin-Dependent Phosphodiesterase Inhibition (Ca^2+ PDE). It is filed as biochemical, rat. To be noted: [^3 H]-cGMP, 30° C. Here is the method:
Phosphodiesterase (Ca^2+ PDE)Ca^2+ PDE was partially purified from the brain of rat by DEAE-Sepharose column chromatography.
Calmodulin was purified from the calf brain using a calmodulin inhibitor W-7 affinity column.
A reaction mixture contained 20 μl of 500 mM Tris-HCl (pH 8.0), 20 μl of 50 mM MgCl2, 20 μl of 2 mM CaCl2 (or 10 mM EGTA), 20 μl of 1 mg/ml bovine serum albumin, PDE, […] of calmodulin, test sample and distilled water to make total volume 200 μl. To the mixture was added 20 μl of 4 μM [^3 H]-cGMP (2.5 μCi/ml), the mixture was incubated at 30° C. for 15 minutes, and then heated in boiling water for 3 to 5 minutes to terminate the reaction, and cooled in ice-water bath. 20 μg of 5'-nucleotidase (Snake venum) was added to the mixture, and the mixture was again incubated at 30° C. for 10 minutes. After addition of about 2 ml of water, the sample was applied to a cation exchange resin column (Biorad AG.AG50W-X4 to adsorbe the [^3 H]-guanosine and additionally about 2 ml of washing water for the sample was added to the column. The column was washed with about 20 ml of water, and the adsorbed [^3 H]-guanosine was eluted with 3 ml of 3N NH4 OH, and the elute was directly received by a vial. After an addition of 10 ml of an emulsified scintillation solution (ACS-II, AMERSHAM) the radio activity was measured by a scintillation counter LS7500 (Beckmann). The enzyme activity in the presence of calmodulin was taken as […], and a concentration of a test compound in μM which provides a 50% inhibition was expressed as IC50.

Setting [3] is: concentration relaxing KCl-contracted strain to 50%, cumulative administration.
Setting [4] is: washed platelets, collagen, 37° C.

One may read the IC50 as the concentration that inhibits the measured activity by half.

Consider `CC(C=Cc1cccc(Cl)c1)NCCNS(=O)(=O)c1cccc2cnccc12` (stereo not drawn) [Example 157], for which the EC50 in assay [1] (setting [3]) is 3200 nM. The IC50 with washed platelets (setting [4]) is 36 µM; in assay [2], 8.6 µM.

In the case of `O=C(NCc1ccccc1)N1CCN(CC(Cc2ccc(O)cc2)NS(=O)(=O)c2cccc3cnccc23)CC1` (stereo not drawn) [Example 71, N-[2-(4-benzylaminocarbonylpiperazinyl)-1-(p-hydroxybenzyl)ethyl]-5-isoquinolinesulfonamide], the EC50 in assay [1] (setting [3]) is 14000 nM. For the same compound, in the assay with washed platelets (setting [4]), the IC50 was determined as 93 µM.

With `CC(C=Cc1ccc(Cl)cc1)NCCNS(=O)(=O)c1cccc2cnccc12` (stereo not drawn) [Example 153], in assay [1] (setting [3]), the EC50 came out at 1500 nM. Further, the IC50 with washed platelets (setting [4]) worked out at 25 µM.

As for `CN(C(Cc1ccc(OS(=O)(=O)c2cccc3cnccc23)cc1)CN1CCN(c2ncccn2)CC1)S(=O)(=O)c1cccc2cnccc12` (stereo not drawn) [Example 41, N-{1-[p-(5-isoquinolinesulfonyloxy)benzyl]-2-[4-(2-pyrimidyl)piperazinyl]ethyl}-N-methyl-5-isoquinolinesulfonamide], the EC50 in assay [1] (setting [3]) was 1800 nM. In the assay with washed platelets (setting [4]), the IC50 amounted to 10 µM.

For `CC(C)c1ccc(C=CCNCCNS(=O)(=O)c2cccc3cnccc23)cc1` [Example 177], in assay [1] (setting [3]), the EC50 was determined as 2700 nM. The IC50 was 56 µM in the assay on washed platelets (setting [4]) and 24 µM in assay [2].

Turning to `CC(C=Cc1ccc(Cl)cc1Cl)NCCNS(=O)(=O)c1cccc2cnccc12` (stereo not drawn) [Example 156, N-[2-(2,4-Dichloro-α-Methylcinnamylamino)Ethyl]-5-Isoquinolinesulfonamide], the EC50 in assay [1] (setting [3]) worked out at 4400 nM. Further, the IC50 (in the assay on washed platelets (setting [4]); in assay [2]) was 19 µM throughout.

For the compound `O=S(=O)(NCCNCC=Cc1ccc(C(F)(F)F)cc1)c1cccc2cnccc12` [Example 179, N-[2-(4-Trifluoromethylcinnamylamino)Ethyl]-5-Isoquinolinesulfonamide], the EC50 in assay [1] (setting [3]) stood at 2800 nM. The IC50 amounted to 51 µM with washed platelets (setting [4]) and 7.8 µM in assay [2].

As for `CN(C(Cc1ccc(O)cc1)CN1CCCNCC1)S(=O)(=O)c1cccc2cnccc12` (stereo not drawn) [Example 114, N-[1-(p-hydroxy)benzyl-2-homopiperazinylethyl]-N-methyl-5-isoquinolinesulfonamide], in assay [1] (setting [3]), the EC50 amounted to 54000 nM. For the same compound, the IC50 with washed platelets (setting [4]) came to 100 µM.

On to `O=S(=O)(NCCNCC=Cc1ccc(Br)cc1)c1cccc2cnccc12` [Example 176, N-[2-(4-Bromophenylcinnamylamino)ethyl]-5-Isoquinolinesulfonamide], for which the EC50 in assay [1] stood at 1200 nM. Besides, the IC50 worked out at 55 µM in the assay on washed platelets and 8.5 µM in assay [2].

On to `O=S(=O)(NCCNCC=Cc1ccc(Cl)cc1)c1cccc2cnccc12` [Example 172, N-[2-(4-Chlorocinnamylamino)ethyl]-5-Isoquinolinesulfonamide], for which, in assay [1] (setting [3]), the EC50 stood at 1000 nM. In addition, the IC50 in the assay with washed platelets (setting [4]) came out at 51 µM; in assay [2] it was 9.4 µM.

As to `CC(C=Cc1ccc(F)cc1F)NCCNS(=O)(=O)c1cccc2cnccc12` (stereo not drawn) [Example 155], in assay [1] (setting [3]), the EC50 was determined as 4100 nM. The IC50 in the assay with washed platelets (setting [4]) was 55 µM.

For the compound `Cc1ccc(C=CC(C)NCCNS(=O)(=O)c2cccc3cnccc23)cc1` (stereo not drawn) [Example 160], the EC50 in assay [1] (setting [3]) came out at 1800 nM. In addition, in the assay on washed platelets (setting [4]), the IC50 came to 56 µM.

`CN(C(Cc1ccc(O)cc1)CN1CCN(c2ccc(F)cc2)CC1)S(=O)(=O)c1cccc2cnccc12` (stereo not drawn) [Example 50, N-{1-(p-hydroxybenzyl)-2-[4-(p-fluorophenyl)piperazinyl]ethyl}-N-methyl-5-isoquinolinesulfonamide]: the EC50 in assay [1] (setting [3]) worked out at 670 nM. Further, the IC50 in the assay on washed platelets (setting [4]) was 70 µM.

`O=C(OCc1ccccc1)N1CCCN(C(=O)[C@H](Cc2ccc(O)cc2)NS(=O)(=O)c2cccc3cnccc23)CC1` [Example 123, 1-Benzyloxycarbonyl-4-[N-(5-Isoquinolinesulfonyl)Tyrosyl]Homopiperazine]: the EC50 in assay [1] (setting [3]) amounted to 4800 nM. Besides, the IC50 in the assay on washed platelets (setting [4]) came to 22 µM.

Take `CN(C(Cc1ccc(O)cc1)CN1CCCN(C(=O)OCc2ccccc2)CC1)S(=O)(=O)c1cccc2cnccc12` (stereo not drawn) [Example 113]: the EC50 in assay [1] (setting [3]) amounted to 880 nM. Further, the results for the IC50 (in the assay on washed platelets (setting [4]); in assay [2]) were 20 µM and 1.2 µM, respectively.

As to `CN(Cc1ccccc1)C1CCN(CC(Cc2ccc(O)cc2)N(C)S(=O)(=O)c2cccc3cnccc23)CC1` (stereo not drawn) [Example 97, N-{2-[4-(N-Benzyl-N-Methylamino)Piperidino]-1-(P-Hydroxybenzyl)Ethyl}-N-Methyl-5-Isoquinolinesulfonamide], the IC50 in the assay with washed platelets (setting [4]) is 39 µM.

`CC(C=Cc1ccc(F)cc1)NCCNS(=O)(=O)c1cccc2cnccc12` (stereo not drawn) [Example 166, N-[2-(4-Fluoro-α-Methylcinnamylamino)Ethyl]-5-Isoquinolinesulfonamide]: in assay [1] (setting [3]), the EC50 was 1400 nM. In addition, the IC50 with washed platelets (setting [4]) worked out at 90 µM.

For `O=S(=O)(Nc1ccccc1NCC=Cc1cccnc1)c1cccc2cnccc12` [Example 145, N-{2-[3-(3-pyridyl)allylamino]phenyl}-5-isoquinolinesulfonamide], the IC50 in the assay with washed platelets (setting [4]) was found to be 12 µM.

`CC(C=Cc1ccc([N+](=O)[O-])cc1)NCCNS(=O)(=O)c1cccc2cnccc12` (stereo not drawn) [Example 159]: in assay [1] (setting [3]), the EC50 turned out to be 5100 nM. Further, the IC50 in the assay with washed platelets (setting [4]) was 24 µM; in assay [2], 92 µM.

Turning to `O=S(=O)(NCCNCC=CC=CC=Cc1ccc(C(F)(F)F)cc1)c1cccc2cnccc12` [Example 181], the EC50 in assay [1] (setting [3]) came out at 8400 nM. The IC50 came to 38 µM in the assay with washed platelets (setting [4]) and 4.7 µM in assay [2].

Regarding `CC(C=Cc1ccc(C(C)C)cc1)NCCNS(=O)(=O)c1cccc2cnccc12` (stereo not drawn) [Example 168], in assay [1] (setting [3]), the EC50 was determined as 3600 nM. For the same compound, in the assay on washed platelets (setting [4]), the IC50 was 26 µM.

`COc1ccc(N2CCN(CC(Cc3ccc(N)cc3)NS(=O)(=O)c3cccc4cnccc34)CC2)cc1` (stereo not drawn) [Example 127, N-{1-(p-aminovenzyl)-2-[4-(p-methoxyphenyl)piperazinyl]ethyl}-5-isoquinolinesulfonamide]: the IC50 in the assay with washed platelets (setting [4]) worked out at 39 µM.

On to `O=C(OCc1ccccc1)N1CCN(C(=O)[C@H](Cc2ccc(O)cc2)NS(=O)(=O)c2cccc3cnccc23)CC1` [Example 29, 1-Benzyloxycarbonyl-4-[N-(5-Isoquinolinesulfonyl)Tyrosyl]Piperazine], for which the EC50 in assay [1] (setting [3]) came out at 7600 nM. In addition, in the assay with washed platelets (setting [4]), the IC50 is 73 µM.

In the case of `CN(C(Cc1ccc(OS(=O)(=O)c2cccc3cnccc23)cc1)CN1CCN(S(=O)(=O)c2ccccc2)CC1)S(=O)(=O)c1cccc2cnccc12` (stereo not drawn) [Example 61, N-{2-[(4-Benzenesulfonyl)Piperazinyl]-1-[P-(5-Isoquinolinesulfonyloxy)Benzyl]Ethyl}-N-Methyl-5-Isoquinolinesulfonamide], the IC50 in the assay on washed platelets (setting [4]) is 10 µM.

Regarding `CC(C=Cc1ccc(Br)cc1)NCCNS(=O)(=O)c1cccc2cnccc12` (stereo not drawn) [Example 167], in assay [1] (setting [3]), the EC50 stood at 1200 nM. Moreover, the IC50 in the assay with washed platelets (setting [4]) is 52 µM.

On to `O=C(OCc1ccccc1)N1CCN(CC(Cc2ccc(O)cc2)NS(=O)(=O)c2cccc3cnccc23)CC1` (stereo not drawn) [Example 68, N-[2-(4-benzyloxycarbonylpiperazinyl)-1-(p-hydroxybenzyl)ethyl]-5-isoquinolinesulfonamide], for which the EC50 in assay [1] (setting [3]) amounted to 3300 ± 1400 nM. The IC50 in the assay with washed platelets (setting [4]) was found to be 6 µM.
